For data set [1], the system named is PDO300Δalg8 (alginate deletion mutant). The experiment in a line: Biofilm inhibition assay (OD600 growth and resazurin biofilm viability). In kind it is cell-based, Pseudomonas aeruginosa. The protocol:
(§1) Figure 2 Biofilm assays to identify compounds that prevent biofilm formation. Biofilm inhibition assay. P. aeruginosa cultures were seeded into 384-well plates after dispensing compounds and antibiotics. The plates were incubated for 24 h at 37 °C followed by recording bacterial growth (OD600) and measuring the viability of biofilm bacteria using resazurin.
(§2) The overnight cultures at 37 °C in LB medium were washed once with sterile saline 0.9% (w/v) and adjusted to an OD600 of 0.05, and 1% inoculum was transferred into a fresh LB medium. Following incubation at 37 °C, 200 rpm for 6–6.5 h to reach the mid-log phase, the cells were washed once with sterile saline 0.9% and diluted to an OD600 of 0.01. Then, 45 µL aliquots were dispensed into 384-well plates (Greiner Bio-One, Kremsmünster, Austria, catalog no. 781091). In biofilm inhibition assays, test compounds (5 µL) were loaded prior to the addition of bacteria. The plates were incubated for 24 h at 37 °C in static conditions. The effects of compounds on bacterial growth and viability of biofilm bacteria were determined by the OD600 and resazurin metabolic assay, respectively. The final concentrations of DMSO in the assays were 1–2%. The negative controls or untreated cultures consisted of inoculum and different concentrations of DMSO. Antibiotic ciprofloxacin (0.25 µg/mL and 25 µg/mL) was used as positive controls. The initial OD600 and final OD600 were read before incubation at 37 °C and after 24 h incubation, respectively, followed by assessment of biofilm viability by resazurin metabolic assay. The experiments were carried out with three technical replicates and repeated at least twice. The growth inhibition was calculated as a function of the percentage of the total bacterial inhibition using Equation (1), where AB is the OD600 of LB medium, and AT0 and ATf are the OD600 recorded at inoculating time and at the end of the assay. (1) % Inhibition=100 × [ 1 − [OD600 (Asample Tf− Asample T0)−(AB Tf − AB T0)/OD600 (Anegative control Tf− Anegative control T0)−(AB Tf − AB T0)]]
(§3) Resazurin sodium salt (Sigma-Aldrich, St. Louis, MI, USA) was dissolved in Milli-Q water at 0.2% (w/v) and filter sterilized. The solution was stored at −20 °C in the dark. The assay was performed as previously described with modification. The cultures were withdrawn, and the plates were washed three times with sterile water using the plate washer (BioTek). To remove the remaining water in the wells, the plates were tapped with autoclaved paper towels. An amount of 50 µL of diluted RSZ solution in LB medium was added into each well, followed by incubation at 37 °C for 5–6 h. A microplate reader (BioTek Synergy 2) was used to measure the fluorescence intensity (excitation 530 nm, emission 590 nm). Data collected were determined as a function of fluorescence percentage using Equation (2), where FB is the fluorescence of the diluted RSZ solution in LB medium in the absence of P. aeruginosa cells. (2) % Inhibition=[(Fnegative control −FB )−(Fsample −FB )/(Fnegative control − FB )]×100

A short description of data set [2]: Stability in liver microsomes. In kind it is in vitro ADME, mouse. To be noted: for hepatic extraction: calculated from microsomal half-life, fu = 1 assumed; for level of hepatic extraction: classification system of Houston 1994; for half-life at 1 µM: male, CD-1, mouse, liver microsomes. The protocol:
(§4) The metabolic assays were performed based on a previously described method. […] The final organic (ACN) concentration in the incubation tubes was 1%. […] Samples (50 μL) were removed at t = 0 (immediately after reaction start), 5, 10, 20, 30, and 60 min. Samples were added to microcentrifuge tubes containing 150 μL of ice-cold acetonitrile containing internal standard (clotrimazole; for […] = 10.0 ng/mL + 0.5% (v/v) formic acid; for 1 and 2 = 2.0 ng/mL + 0.5% (v/v) formic acid; for VPL = 20.0 ng/mL + 0.1% (v/v) formic acid). Tubes were centrifuged (13,000× g, 5 min), and ~135 μL of supernatant transferred to polypropylene 96-well plates for analysis.
(§5) Chromatographic separation was achieved using a biphenyl column [Kinetix, 100 mm × 4.6 mm, 2.6 μm; Phenomenex (Sydney, Australia)], coupled with a gradient elution with mobile phases containing acetonitrile/H2O/0.5% formic acid. Analysis was conducted in positive ion multiple reaction monitoring (MRM) mode with argon as the collision gas. Optimum MS/MS conditions were established prior to incubations by direct infusion of individual solutions of 1, 2, and 3 into the LC-MS/MS. To ensure adequate sensitivity of analysis, multiple mass transitions were summed for all three test compounds.
(§6) LN % remaining vs. time data for each data set were fitted to an exponential decay function to determine the first-order rate constant (k) for substrate depletion. For Equations (5)–(7), scaling parameters used were described elsewhere.

In a further data set the test system is planktonic PAO1. As to the kind of experiment: Checkerboard assay with antibiotics. It is filed as cell-based, Pseudomonas aeruginosa. Set-up: MIC of ciprofloxacin reduced to: unit not given beside the values. Particulars: for MIC of ciprofloxacin reduced to: in combination with compound; for synergy with ciprofloxacin: planktonic PAO1. The protocol: The synergistic activity of compounds with antibiotics, including tobramycin, ciprofloxacin and meropenem, was investigated by a checkerboard dilution assay. Briefly, mid-log cultures of P. aeruginosa were diluted 1:1250 before being added to the plates. Next, 90 µL aliquots of diluted cells were added to a 96-well Costar (Corning) plate containing either 10 µL of compounds and/or 10 µL of antibiotics. Compounds and antibiotics were tested at 11 and 7 concentrations, respectively. The first row contained antibiotics alone, while the first column contained compounds alone, and the remaining columns were for combinations.

A short description of data set [3]: Stability in liver microsomes. It is filed as in vitro ADME, human. To be noted: for half-life at 1 µM: both sexes, human, liver microsomes. The protocol:
as §4, §5, §6
(In general: Liver microsomes are vesicles of endoplasmic reticulum, rich in cytochrome P450 enzymes.)

For another data set, the system named is PAO1ΔpslA biofilms. The experiment in a line: Fluorescence microscopy of biofilms (SYTO9/propidium iodide). In kind it is cell-based, Pseudomonas aeruginosa. The protocol:
(§7) Biofilms of wild-type PAO1 and isogenic biofilm matrix component mutants were treated with ianthelliformisamines or ciprofloxacin alone and the combinations. Their biofilms were simultaneously stained with SYTO9 (green) and propidium iodide (red). Cells with intact membranes were stained green, while cells with compromised membranes were stained red.
(§8) For biofilm bacteria imaging, bacteria were cultured, treated with test compounds, and washed, as previously mentioned in the biofilm inhibition assay. The biofilm bacteria were stained using a LIVE/DEAD BacLight bacterial viability kit (Molecular Probes, Inc., Eugene, OR, USA), which consists of SYTO9 (green; staining cells with intact membrane) and propidium iodide (red; staining cells with compromised membrane). Images were captured using a high-content imaging system Operetta CLS (Perkin Elmer, Waltham, MA, USA) with a 60× water-immersion objective.

The subject of another data set is PAO1 biofilms. The description is as above. It is filed as cell-based, Pseudomonas aeruginosa. The protocol:
as §7, §8

Another data set has as its system PDO300 biofilms. Described as above. In kind it is cell-based, Pseudomonas aeruginosa. To be noted: for biofilm after treatment: compound alone. The protocol: as §7, §8
The subject of data set [4] is PAO1ΔpslA (Psl deletion mutant). As to the kind of experiment: Biofilm inhibition assay (OD600 growth and resazurin biofilm viability). In kind it is cell-based, Pseudomonas aeruginosa. The protocol:
as §1, §2, §3

Where [5] appears, read: pH 7.4, no NRS, compound 1 between 20 and 60 min, compound 2 over 30 min, read-out: half-life of degradation, negative control (no NRS added).
Where [6] appears, read: pH 7.4, with NADPH regeneration system, 1.0 µM, 0.5 mg/mL microsomes, read-out: half-life of degradation.
The mark [7] stands for this setting: in combination with ciprofloxacin.
Where [8] appears, read: compound alone (1 86.2, 2 69.1, 3 53.1/106.2 µg/mL).

Molecules are shown by their SMILES. “Also recorded” adds a separate entry of the source. Where two headings read alike, the source gives them in different places. Bounds are passed on as bounds.

The half-life is the time needed for the level to fall by half in the phase considered. As to `COc1c(Br)cc(/C=C/C(=O)NCCCNCCCCNCCCN)cc1Br` [Compound 1, ianthelliformisamine A], in data set [1], the “activity against biofilm bacteria” value is reported as less than 60% and the “effect on planktonic counterparts” value is given as “significant death”. Also, in data set [2], the metabolic stability result is listed as “moderate degradation”, the hepatic extraction is reported as 0.48 and the “level of hepatic extraction” value is “intermediate”. Moreover, in data set [2] (setting [5]), the half-life at 1 µM is roughly 45 min. Moreover, the half-life at 1 µM in data set [2] (setting [6]) worked out at 38.2 min. Moreover, in the data set with planktonic PAO1, the “enhancement of the activity of tobramycin or meropenem” value was “did not enhance”, the “MIC of ciprofloxacin reduced to” value is listed as 1/3 and the synergy with ciprofloxacin entry is on record as “worked synergistically”. Besides, the metabolic stability entry in data set [3] is given as “substantial instability; also recorded: significant instability”. Also, in the data set on PAO1ΔpslA biofilms (setting [7]), the biofilm after treatment result is “eradicated”. In addition, the “interaction with ciprofloxacin on biofilms” value (“interaction … on biofilms” for short) with PAO1 biofilms is “synergistically”. In addition, the biofilm after treatment entry in the data set on PAO1 biofilms (compound 86.2 µg/mL + ciprofloxacin 1/3 MIC) is on record as “Complete biofilm inhibition”. Moreover, in the data set on PAO1 biofilms (setting [8]), the biofilm after treatment result is listed as “remained unaffected”. Also, in the data set with PDO300 biofilms, the “effect in combination with ciprofloxacin” value was “synergistic effects” and the biofilm after treatment entry is “slightly reduced”.
In the case of `COc1c(Br)cc(/C=C/C(=O)NCCCNCCCCN)cc1Br` [Compound 2, ianthelliformisamine B], the survival compromised came to 60% in data set [1] (compound + ciprofloxacin at 1/3 MIC) and 40% in data set [1] (compound + ciprofloxacin at 1/4 MIC). Further, in data set [1] (compound + ciprofloxacin at 1/4 and 1/3 MIC), the susceptibility of biofilms result is “much less susceptible”. In data set [4] (ciprofloxacin 1/3 and 1/4 MIC), the interaction with ciprofloxacin result was “no synergistic interaction”. Moreover, the “effect on growth and biofilm formation” value in data set [4] (compound alone) is “marginal effects”. Also, the metabolic stability entry in data set [2] and in data set [3] was “moderate degradation; also recorded: moderately degraded” each time. The hepatic extraction in data set [2] was 0.42; in data set [3] (calculated from microsomal half-life, fu = 1 assumed) it was 0.61. Moreover, the “level of hepatic extraction” value in data set [2] and in data set [3] (classification system of Houston 1994) was “intermediate” throughout. The half-life at 1 µM in data set [2] (setting [5]) was 90 min; in data set [2] (setting [6]) it was 42.8 ± 7.6 min; in data set [3] (pH 7.4, no NRS, 30-min incubation, read-out: half-life of degradation, negative control (no NRS added)), 103 min; in data set [3] (setting [6]), 35.7 ± 2.1 min. For the same compound, the “enhancement of the activity of tobramycin or meropenem” value in the data set with planktonic PAO1 is recorded as “did not enhance”. Also, the “MIC of ciprofloxacin reduced to” value in the data set with planktonic PAO1 is listed as 1/4. The synergy with ciprofloxacin result in the data set with planktonic PAO1 is given as “worked synergistically”. Also, the biofilm after treatment result with PAO1ΔpslA biofilms (setting [7]) is listed as “eradicated”; with PAO1 biofilms (setting [8]), “remained unaffected”; in the data set with PDO300 biofilms it was “slightly reduced”. The “interaction … on biofilms” value with PAO1 biofilms is given as “no effect”. Besides, the “effect in combination with ciprofloxacin” value with PDO300 biofilms is “synergistic effects”.
For the compound `COc1c(Br)cc(/C=C/C(=O)NCCCNCCCCNCCCNC(=O)/C=C/c2cc(Br)c(OC)c(Br)c2)cc1Br` [Compound 3, ianthelliformisamine C], in data set [1] (compound alone), the “effect on free-living cells” value is reported as “eradicated”. Further, the “reduction of biofilm viability” value in data set [1] (compound alone) was found to be 80%. For the same compound, the “synergistic interaction with ciprofloxacin, planktonic forms and biofilms” value in data set [4] (compound 53.1 µg/mL) is reported as “negligible synergistic interactions”. Also, the biofilm inhibition in data set [4] (compound 106.2 µg/mL + sub-lethal doses of ciprofloxacin) is on record as ~ 100%. Moreover, the “killing of planktonic and biofilm populations” value in data set [4] (compound alone 106.2 µg/mL) is recorded as “completely killed”. Moreover, the planktonic growth inhibition entry in data set [4] (compound alone 106.2 µg/mL) is listed as “independently inhibited planktonic growth”. Further, the metabolic stability entry in data set [2] and in data set [3] was “metabolically stable” each time. For the same compound, the synergy with ciprofloxacin entry in the data set with planktonic PAO1 was “limited synergy”. The biofilm after treatment entry with PAO1ΔpslA biofilms (alone) was “completely dispersed the biofilm”; with PAO1 biofilms (setting [8]) it was “slightly reduced”; with PDO300 biofilms it was “completely eradicated”. Further, the “interaction … on biofilms” value with PAO1 biofilms is “antagonistically”.

The values above are taken from publication PMC10299588, “Bromotyrosine-Derived Metabolites from a Marine Sponge Inhibit Pseudomonas aeruginosa Biofilms” (International Journal of Molecular Sciences, 2023).
